{"source": "patent US20090029979A1", "about": "“5-HTX MODULATORS” (BIO-MEDISINSK INNOVASJON AS, priority 2005, published 2009)", "biological_target": "T1, human 5-HT2A receptor (Homo sapiens, UniProt P28223)", "T1 construct": "expressed in transfected cells; host or cells: HEK293, transient transfection", "T1 sequence (P28223 whole entry)": "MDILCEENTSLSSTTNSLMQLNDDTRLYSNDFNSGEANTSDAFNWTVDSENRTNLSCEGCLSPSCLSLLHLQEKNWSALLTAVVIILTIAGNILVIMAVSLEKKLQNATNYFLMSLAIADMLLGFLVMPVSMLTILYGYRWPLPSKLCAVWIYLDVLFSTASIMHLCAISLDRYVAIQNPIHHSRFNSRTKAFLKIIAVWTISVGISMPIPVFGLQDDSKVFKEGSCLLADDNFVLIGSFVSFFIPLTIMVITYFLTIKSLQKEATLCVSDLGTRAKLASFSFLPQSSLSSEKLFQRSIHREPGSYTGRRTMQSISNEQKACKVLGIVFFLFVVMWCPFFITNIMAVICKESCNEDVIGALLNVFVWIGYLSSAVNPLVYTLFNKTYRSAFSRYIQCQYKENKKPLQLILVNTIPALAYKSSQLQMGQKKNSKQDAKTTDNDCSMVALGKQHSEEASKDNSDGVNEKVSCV", "test": "Radioligand binding assay with [3H]ketanserin, membranes of HEK293 cells transiently transfected with human 5-HT2A receptor", "settings": "5-HT2A ligands, values are pKd ± half-range, read-out: Binding affinity (pKd value) (pKd ± SEM) (converted)", "protocol": "Binding assays were performed in 96-well, round-bottom microtiter plates with total reaction volumes of 50-200 μl, containing the indicated concentration of [^3H]GR113808 with or without competing unlabelled ligand in a binding buffer containing 50 mM Tris-HCl (pH 7.5 at RT), 1 mM EDTA, 5 mM EGTA, 2 mM MgCl2, 1 mM ascorbate, 0.1% BSA and 100 μM GTP. The plates were incubated at 23° C. for 60 min and harvested onto UniFilter™-96 GF/C™ (Packard Instrument Co., Meriden, Conn., USA), presoaked in 0.3% polyethyleneimine (Sigma), using a Packard FilterMate Universal Harvester with 96-well format, and washed 4-6 times with approximately 0.25 ml/well of ice-cold buffer, containing 50 mM Tris-HCl (pH 7.0 at RT) and 2 mM MgCl2. The filters were dried and counted at approximately 40% efficiency in a Top-Count liquid scintillation counter (Packard), using 20 μl per filter well of Micro-Scint liquid scintillation cocktail (Packard).\nThe same materials and methods described in example 83 were used for the biological testing of hydrophilic 5-HT7 and 5-HT2A ligands. Membrane preparations of HEK293 cell lines stably expressing human 5-HT7(a) receptors (Krobert et al. 2001), or HEK293 cells transiently transfected with human 5-HT2A receptor were used in the binding assays. […]", "note": "Where a name gives a salt, the structure may show the parent alone."}
{"smiles": "COc1cc(OC)c(C(=O)CCCCN2CCC3(CC2)NC(=O)NC3=O)cc1NS(=O)(=O)c1ccc(C(F)(F)F)cc1", "note": "[RS102221, 8-(5-(2,4-Dimethoxy-5-(4-trifluoromethylphenylsulphonamido)phenyl-5-oxopentyl]-1,3,8-triazaspiro[4.5]decane-2,4-dione hydrochloride, reference compound]", "values": [{"measurement": "Kd", "value": 4.57, "unit": "µM"}]}
{"smiles": "COC(=O)c1ccc(CN2CCC(NC(=O)C34CC5CC(CC(C5)C3)C4)C2)cc1", "note": "(centres unmarked) [Example 72]", "values": [{"measurement": "Kd", "value": 49, "unit": "µM"}]}
